Assay results: article PMC11047187 (Synthetic and Systems Biotechnology, 2024)

Assays:
[1] = biological target: T1, EcFADS (FAD synthase, RibF; RFK activity) (Escherichia coli, UniProt P0AG40, H187L/N282D, form not given); experiment: RFK assay, FMN by HPLC fluorescence, Michaelis-Menten fit; assay type: biochemical; conditions: riboflavin kinase activity; 0.01-0.8 mM ATP, saturated RF; 15 mM MgCl2, 10 mM Na2SO3, potassium phosphate pH 7.5, 37 °C; read-out: KATP m
T1 construct: full-length bifunctional RibF in pETDuet-1 (BamHI/NotI), His-tagged, Ni-NTA purified, expressed in E. coli BL21(DE3); natural BL21 variant H115L (not engineered); about 35 kDa; mainly monomer; tag removal not mentioned
Source text: (§1) RFK assay, FMN by HPLC fluorescence, Michaelis-Menten fit on EcFADS (FAD synthase, RibF; RFK activity)

[2] = biological target: T2, EcFADS (FAD synthase, RibF; RFK activity) (Escherichia coli, UniProt P0AG40); experiment: as above; assay type: biochemical; conditions: riboflavin kinase activity; 0.01-0.8 mM ATP, saturated RF; 15 mM MgCl2, 10 mM Na2SO3, potassium phosphate pH 7.5, 37 °C; read-out: KATP m
T2 construct: full-length bifunctional RibF in pETDuet-1 (BamHI/NotI), His-tagged, Ni-NTA purified, expressed in E. coli BL21(DE3); natural BL21 variant H115L (not engineered); about 35 kDa; mainly monomer; tag removal not mentioned
Source text: as §1

T1 sequence (P0AG40 whole entry H187L/N282D, form open): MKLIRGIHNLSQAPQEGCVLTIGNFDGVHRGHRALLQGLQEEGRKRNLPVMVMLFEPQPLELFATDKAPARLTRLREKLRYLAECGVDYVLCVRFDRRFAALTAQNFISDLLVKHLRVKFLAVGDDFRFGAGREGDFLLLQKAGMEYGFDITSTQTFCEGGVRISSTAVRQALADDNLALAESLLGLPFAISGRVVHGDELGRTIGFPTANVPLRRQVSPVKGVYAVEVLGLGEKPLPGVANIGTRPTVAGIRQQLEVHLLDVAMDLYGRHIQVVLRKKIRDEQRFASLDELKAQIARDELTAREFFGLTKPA

- Km [1]: 91.1 ± 36.7 µM
- Km [2]: 10.2 ± 2.55 µM
SMILES: Nc1ncnc2c1ncn2[C@@H]1O[C@H](COP(=O)(O)OP(=O)(O)OP(=O)(O)O)[C@@H](O)[C@H]1O [ATP]
